From patent US7589075B2, “Use of an adenosine A3 receptor agonist for inhibition of viral replication” (Can-Fite Biopharma Ltd., priority 2001, dated 2009) come the findings set out here.

SMILES strings stand for the structures.

What all share (format): cell-based
Experiment [1] has as its system HIV-1 isolate JR-FL in primary human fetal astrocytes. Nature of the experiment: p24 ELISA, HIV replication in JR-FL infected astroglial cells. The note with it: for p24 pg/mL Day 5: Astroglia/JR-FL, 0.01 (μM) every 24 hours, culture medium 5 days after HIV infection, HIV control 22.83; for amount of p24 protein in culture medium from HIV infected cells in comparison to untreated HIV controls: summary statement for Tables 1 to 3 (astroglia and microglia, JR-FL and SF162). On the procedure:
(§1) Purified primary human fetal astrocytes and microgial cells were prepared from 16 to 20 week old human fetal brain tissue by a modified procedure based on the methods of Cole and de Vellis^11, and Yong and Ante^13. Brain tissue was washed in ice-cold Hank's Balanced Salt Solution (HBSS) containing the antibiotics gentamycin and amphotericin B. Blood vessels and meninges were removed and the tissue was minced into small pieces. After mincing, the tissue was enzymatically dissociated by incubation in 0.05% trypsin and mechanically disrupted by passing several times over a 75 μm nylon mesh filter. The resulting single cell suspension was washed, pelleted and plated at a density of 2-10×10^6 cells per 162 cm^2 flask in DMEM:F12 containing 10% fetal calf serum, insulin, gentamycin, and L-glutamine. After 7-10 days of growth, microglial cells were isolated by placement on rotary shaker at 200 rpm in a 37° C. incubator overnight. The non-adherent cells were removed and allowed to attach to a new flask for 1 to 3 h. Following attachment, the cells were washed and refed with media containing 10% fetal calf serum, insulin, gentamycin, L-glutamine, and NI supplement. Astrocytes were subcultured from adherent cells in media containing 15% fetal calf serum, insulin, gentamycin, and L-glutamine and contaminating microglia were removed by repeated rotary shaking. Cultured astrocytic and microglial cells were plated at a density of 2.5×10^5 per well into 6 well plates for subsequent infection.
(§2) Brain derived primary HIV-1 isolates SF162 and JR-FL were cultured in human peripheral blood mononuclear cells (PBMC) essentially as described by Gartner and Popovic^12. PBMC were isolated from human buffy coat by fico gradient and plated at a density of 2.5×10^6 per ml in RPMI containing 10% fet calf serum and gentamycin. Cells were stimulated by the addition of 5 ug/ml phytohemagglutinin (PHA) for 48 h. After stimulation, cells were infected will either SF162 or JR-FL and cultured for 7 to 10 days until high titres of HIV-1 we detected in the supernatant by p24 ELISA assay. When viral production was optimal, the cells were pelleted, the supernatant containing HIV-1 was aliquoted and stored at −70° C. until use. P24 ELISA assay was performed on an aliquoted stock to determine the viral titre.
2.5×10^5 microglial or astrocytic cells were plated per well into 6-we plates. The next day, cells were washed and refed with fresh medium. 2×10^4 p2units of either SF 162 or JR-FL virus was added per well in a total of 1 ml of vir inoculum. In control experiments, the virus was not added. Cells were incubated with virus overnight at 37° C., washed extensively with PBS, and refed with […] fresh medium. Cultures were treated with IB-MECA or CI-IB-MECA at concentration of 0.01 μM every 24 hours. […]
For orientation: In an ELISA, binding on a coated surface is turned into a signal by an enzyme label.

The subject of experiment [2] is HIV-1 isolate SF162 in primary human fetal microglia. Nature of the experiment: p24 ELISA, HIV replication in SF162 infected microglia. Conditions: Microglia/SF; for p24 pg/mL Day 5 after infection: HIV control 267.99; for p24 pg/mL Day 10 after infection: HIV control 209.18. On the procedure:
as §1, §2
2.5×10^5 microglial or astrocytic cells were plated per well into 6-we plates. The next day, cells were washed and refed with fresh medium. 2×10^4 p2units of either SF 162 or JR-FL virus was added per well in a total of 1 ml of vir inoculum. In control experiments, the virus was not added. Cells were incubated with virus overnight at 37° C., washed extensively with PBS, and refed with […] fresh medium. […] 500 μl of medium were removed at the indicated times following infection and stored at −70° C. for later analysis. Each time medium was removed, a volume amount of fresh medium was added. In control experiments IB-MECA and Cl-IB-MECA were omitted.
ELISA assay to detect the HIV-1 viral core protein, p24, was performed of 50 μl of the collected supernatant utilizing the commercially available p24 ELISA Kit (NEN/Dupont) according to the manufacturer's instructions.

Experiment [3] deals with HIV-1 isolate SF162 in primary human fetal astrocytes. Put plainly: p24 ELISA, HIV replication in SF162 infected astroglia. Conditions: Astroglia/SF-162; 0.01 (μM) every 24 hours; culture medium 5 days after infection; HIV control 313.38. The protocol: as §1, with “Following attachment, the cells were washed and refed with media containing 10% fetal calf serum, insulin, gentamycin, L-glutamine, and NI supplement. Astrocytes were subcultured from adherent cells in media containing 15% fetal calf serum, insulin, gentamycin, and L-glutamine and contaminating microglia were removed by repeated rotary shaking. Cultured astrocytic and microglial cells were plated at a density of 2.5×10^5 per well into 6 well plates for subsequent infection.” left out
Brain derived primary HIV-1 isolates SF162 and JR-FL were cultured in human peripheral blood mononuclear cells (PBMC) essentially as described by Gartner and Popovic^12. […] After stimulation, cells were infected will either SF162 or JR-FL and cultured for 7 to 10 days until high titres of HIV-1 we detected in the supernatant by p24 ELISA assay. […]

With `CNC(=O)[C@H]1O[C@@H](n2cnc3c(NCc4cccc(I)c4)ncnc32)[C@H](O)[C@@H]1O` [IB-MECA, 1-deoxy-1-{6-[({3-iodophenyl}methyl)amino]-9H-purine-9-yl}-N-methyl-β-D-ribofuranuron-amide], in experiment [1], the “p24 pg/mL Day 5” value stood at 3.02 pg/mL and the “amount of p24 protein in culture medium from HIV infected cells in comparison to untreated HIV controls” value is on record as “significantly reduced”. Further, in experiment [2] (0.01 (μM)), the “p24 pg/mL Day 5 after infection” value amounted to 81.33 pg/mL and the “p24 pg/mL Day 10 after infection” value is given as 62.79 pg/mL. Further, in experiment [2] (0.1), the “p24 pg/mL Day 5 after infection” value is given as 82.29 pg/mL and the “p24 pg/mL Day 10 after infection” value turned out to be 54.80 pg/mL. For the same molecule, the “p24 pg/mL Day 5” value in experiment [3] was 137.58 pg/mL.

On to `CNC(=O)[C@H]1O[C@@H](n2cnc3c(NCc4cccc(I)c4)nc(Cl)nc32)[C@H](O)[C@@H]1O` [Cl-IB-MECA], for which, in experiment [1], the “p24 pg/mL Day 5” value is 8.45 pg/mL and the “amount of p24 protein in culture medium from HIV infected cells in comparison to untreated HIV controls” value is on record as “significantly reduced”. In addition, in experiment [2] (0.01 (μM)), the “p24 pg/mL Day 5 after infection” value is given as 127.03 pg/mL and the “p24 pg/mL Day 10 after infection” value is recorded as 111.05 pg/mL. Moreover, in experiment [2] (0.1), the “p24 pg/mL Day 5 after infection” value was 10.81 pg/mL and the “p24 pg/mL Day 10 after infection” value is 80.37 pg/mL. Further, the “p24 pg/mL Day 5” value in experiment [3] is 288.77 pg/mL.
